The text below walks through data of patent publication US8637674B2, “Pyrazole derivatives, preparation method thereof, and composition for prevention and treatment of osteoporosis containing same” (EWHA University-Industry Collaboration Foundation, priority 2009, dated 2014).

pEC50: −log10 of the molar value.

The target in the assay is reactive oxygen species generated in kidney membrane (NADPH oxidase). Nature of the assay: Inhibition of reactive oxygen species generation in kidney membrane (lucigenin-based assay). The assay is classed as biochemical, rat (Rattus norvegicus). Conditions: 37° C. for 10 minutes, luminescence, compounds at 40, 10, 2.5, 0.625, 0 μM. As to the method:
A kidney was isolated from a rat (Rattus norvegicus) and washed with phosphate buffered saline (PBS). The tissue was soaked in 20 mL of PBS buffer containing a protease inhibitor (Aprotinin 1 μg/mL-USB 11388, Leupeptin 1 μg/mL-USB-18413), finely disrupted using a mixer, and then transferred to a 50 mL conical tube (SPL 50050), followed by centrifugation at 10000 g for 10 minutes (MF-600 plus, Hanil) to sediment the undisrupted tissue. The supernatant was separated and collected in a fresh tube. The tube was placed in ice and subjected to sonication about 4 times each cycle for 30 seconds until the supernatant became clear (Branson Digital Sonifier, Model CE Converter 102C). The supernatant was transferred to a high-speed centrifugation tube (Beckman 331372) and then centrifuged at 100000 g for 1 hour (Optima™ L-90 K Preparative Ultracentrifuge, SW41Ti rotor, Beckman). After the supernatant was discarded, the remaining pellet was washed once with cold PBS and dissolved in 500 μL of cold PBS containing a protease inhibitor to obtain a murine kidney membrane.
Reactive oxygen species generated in the thus-obtained kidney membrane was analyzed by a lucigenin-based assay.
Specifically, each of the compounds synthesized in Examples of the present invention (40 μM, 10 μM, 2.5 μM, 0.625 μM, and 0 μM) was placed in a luminescence assay microplate, and the isolated kidney membrane and lucigenin were sequentially added thereto, followed by incubation at 37° C. for 10 minutes. Then, the intensity of luminescence was measured in a luminometer (MicroLumatPlus LB96V Microplate Luminometer, Berthold) to assay the generation of reactive oxygen species in the murine kidney membrane, followed by calculating an EC50 value of the inventive compounds.
As for `Oc1ccc(C=Cc2cc(O)n(-c3ccccn3)n2)cc1` [Compound 9k, 3-(4-hydroxystyryl)-1-(pyridin-2-yl)-1H-pyrazol-5-ol], the pEC50 (in general, −log10 of the EC50, conventionally taken in molar units) was 5.82.
The compound `Oc1cc(COc2ccc(Cl)cc2Cl)nn1-c1ccccn1` [Compound 6d, 3-((2,4-dichlorophenoxy)methyl)-1-(pyridin-2-yl)-1H-pyrazol-5-ol] showed a pEC50 of 5.74.
Consider `COc1ccc(C=Cc2cc(O)n(-c3ccccn3)n2)cc1` [Compound 9b, 3-(4-methoxystyryl)-1-(pyridin-2-yl)-1H-pyrazol-5-ol], for which the pEC50 was 6.30.
In the case of `Oc1cc(COc2ccccc2)nn1-c1ccccn1` [Compound 6a, 3-(phenoxymethyl)-1-(pyridin-2-yl)-1H-pyrazol-5-ol], the pEC50 was 5.12.
The result for `Oc1cc(CCc2ccccc2)nn1-c1ccccn1` [Compound 3d, 3-phenethyl-1-(pyridin-2-yl)-1H-pyrazol-5-ol] reads 5.00; that for `Oc1cc(C=Cc2ccccc2)nn1-c1ccccn1` [Compound 9a, 1-(pyridin-2-yl)-3-styryl-1H-pyrazol-5-ol], 6.30; that for `COc1ccc(C=Cc2cc(O)n(-c3ccccn3)n2)cc1OC` [Compound 9c, 3-(3,4-dimethoxystyryl)-1-(pyridin-2-yl)-1H-pyrazol-5-ol], 6.22.
Regarding `Oc1cc(C=Cc2ccc(C(F)(F)F)cc2)nn1-c1ccccn1` [Compound 9f, 3-(4-trifluoromethylstyryl)-1-(pyridin-2-yl)-1H-pyrazol-5-ol], the pEC50 is 6.30.
In turn, `Oc1cc(C=Cc2ccc(Cl)c(Cl)c2)nn1-c1ccccn1` [Compound 9d, 3-(3,4-dichlorostyryl)-1-(pyridin-2-yl)-1H-pyrazol-5-ol] gave a pEC50 of 5.77.
The result for `CC(C)(C)[Si](C)(C)Oc1ccc(/C=C/c2cc(O)n(-c3ccccn3)n2)cc1` [Compound 9g] reads 6.05; that for `Oc1cc(COc2ccc3ccccc3c2)nn1-c1ccccn1` [Compound 6b, 3-((naphthalen-3-yloxy)methyl)-1-(pyridin-2-yl)-1H-pyrazol-5-ol], 6.40; that for `Oc1cc(Cc2ccc(Cl)cc2)nn1-c1ccccn1` [Compound 3e, 3-(p-chlorobenzyl)-1-(pyridin-2-yl)-1H-pyrazol-5-ol], 5.82.
